In ChEMBL document CHEMBL1142752, “Synthesis and antiviral activities of novel N-alkoxy-arylsulfonamide-based HIV protease inhibitors” (Bioorg Med Chem Lett, 2005):

Each compound was assayed against Human immunodeficiency virus type 1 protease (Human immunodeficiency virus 1, UniProt Q72874) (assay: Inhibition constant against HIV-1 protease).
Work on COc1ccc(S(=O)(=O)N(C[C@@H](O)[C@H](Cc2ccccc2)NC(=O)OC(C)(C)C)OC2CCCCC2)cc1 yielded a Ki of 2.8 nM. COc1ccc(S(=O)(=O)N(CC(O)C(Cc2ccccc2)NC(=O)[C@H](CC(N)=O)NC(=O)c2ccc3ccccc3n2)OC2CCCC2)cc1 (some centres not stated) was tested, and the Ki was under 0.005 nM. COc1ccc(S(=O)(=O)N(C[C@@H](O)[C@H](Cc2ccccc2)NC(=O)OC(C)(C)C)Oc2ccccc2)cc1 was tested, and the Ki was 22 nM. Compound O=C(N[C@@H](Cc1ccccc1)[C@H](O)CN(OC1CCCC1)S(=O)(=O)c1ccc(O)cc1)O[C@H]1CO[C@H]2OCC[C@H]21 has a Ki of under 0.005 nM. For Nc1ccc(S(=O)(=O)N(C[C@@H](O)[C@H](Cc2ccccc2)NC(=O)O[C@H]2CO[C@H]3OCC[C@H]32)OC2CCCC2)cc1, the Ki was under 0.005 nM. Nc1cccc(S(=O)(=O)N(C[C@@H](O)[C@H](Cc2ccccc2)NC(=O)O[C@H]2CO[C@H]3OCC[C@H]32)OC2CCCC2)c1 showed a Ki of under 0.005 nM. In the case of COC(=O)N[C@H](C(=O)N[C@@H](Cc1ccccc1)[C@H](O)CN(OC1CCCC1)S(=O)(=O)c1ccc(OC)cc1)C(C)(C)C, the Ki is reported as 0.09 nM. For O=C(N[C@@H](Cc1ccccc1)[C@H](O)CN(OC1CCCC1)S(=O)(=O)c1ccc2c(c1)OCO2)O[C@H]1CO[C@H]2OCC[C@H]21, the Ki was under 0.005 nM. With COc1ccc(S(=O)(=O)N(C[C@@H](O)[C@H](Cc2ccccc2)NC(=O)OC(C)(C)C)OCC(C)C)cc1 the Ki was 4 nM. COc1ccc(S(=O)(=O)N(C[C@@H](O)[C@H](Cc2ccccc2)NC(=O)O[C@@H]2COC3OCCC32)OC2CCCC2)cc1 (some centres not stated) gave a Ki of under 0.005 nM. Work on O=C(N[C@@H](Cc1ccccc1)[C@H](O)CN(OC1CCCCC1)S(=O)(=O)c1ccc(O)cc1)O[C@H]1CO[C@H]2OCC[C@H]21 yielded a Ki of under 0.005 nM. O=C(N[C@@H](Cc1ccccc1)[C@H](O)CN(OC1CCCCC1)S(=O)(=O)c1ccc2c(c1)OCCO2)O[C@H]1CO[C@H]2OCC[C@H]21 showed a Ki of under 0.005 nM. Nc1cccc(S(=O)(=O)N(C[C@@H](O)[C@H](Cc2ccccc2)NC(=O)O[C@H]2CO[C@H]3OCC[C@H]32)OC2CCCCC2)c1 gave a Ki of 0.005 nM. With Nc1ccc(S(=O)(=O)N(C[C@@H](O)[C@H](Cc2ccccc2)NC(=O)O[C@H]2CO[C@H]3OCC[C@H]32)OC2CCCCC2)cc1 the Ki was 0.018 nM. In the case of COc1ccc(S(=O)(=O)N(C[C@@H](O)[C@H](Cc2ccccc2)NC(=O)O[C@H]2CO[C@H]3OCC[C@H]32)OC2CCCC2)cc1, the Ki is reported as under 0.005 nM. COc1ccc(S(=O)(=O)N(C[C@@H](O)[C@H](Cc2ccccc2)NC(=O)OC(C)(C)C)OCC2CCCCC2)cc1 gave a Ki of 12 nM. With O=C(N[C@@H](Cc1ccccc1)[C@H](O)CN(OC1CCCCC1)S(=O)(=O)c1ccc2c(c1)OCO2)O[C@H]1CO[C@H]2OCC[C@H]21 the Ki was under 0.005 nM. For CCC(CC)ON(C[C@@H](O)[C@H](Cc1ccccc1)NC(=O)OC(C)(C)C)S(=O)(=O)c1ccc(OC)cc1, the Ki was 3.2 nM. In the case of COc1ccc(S(=O)(=O)N(C[C@@H](O)[C@H](Cc2ccccc2)NC(=O)OC2CCOC2)OC2CCCC2)cc1 (some centres not stated), the Ki is reported as 0.19 nM. In the case of COc1ccc(S(=O)(=O)N(C[C@@H](O)[C@H](Cc2ccccc2)NC(=O)OC(C)(C)C)OC2CCCC2)cc1, the Ki is reported as 1.6 nM. In the case of O=C(N[C@@H](Cc1ccccc1)[C@H](O)CN(OC1CCCC1)S(=O)(=O)c1ccc2c(c1)OCCO2)O[C@H]1CO[C@H]2OCC[C@H]21, the Ki is reported as under 0.005 nM. Work on COc1ccc(S(=O)(=O)N(C[C@@H](O)[C@H](Cc2ccccc2)NC(=O)OC(C)(C)C)OC(C)C)cc1 [ENTRY A] yielded a Ki of 14 nM.
